Measurements reported in patent publication US20150087037A1, “FERMENTATION PROCESS” (LanzaTech New Zealand Limited, priority 2013, published 2015).

System: Ketol-acid reductoisomerase IlvC
Assay: Inhibition of ketol-acid reductoisomerase
Assay type: biochemical, Clostridium autoethanogenum
Conditions: mode of action proposed from gene expression and BCAA data
From the text: The addition of 2-HIBA impacts the metabolism of Clostridium autoethanogenum. […] In native systems the expression and activity of Acetolcatate synthase IlvBN is down regulated by branched chain amino acid synthesis. The addition of 2-HIBA to the fermentation inhibits Ketol-acid recuctoisomerase IlvC, branch chained amino acid biosynthesis, which results in a decrease in the concentration of valine, isoleucine and leucine. As a result, feedback inhibition of the IlvBN enzyme by valine, isoleucine and leucine is removed. This causes an increase in acetolactate production. An increase in the acetolactate pool leads to an overflow of carbon to 2,3-butanediol. The conversion of acetolactate and acetoin to 2,3-BDO are not rate limited, and conversion to 2,3-BDO freely occurs without the need to further up regulate enzymes responsible for the conversion of acetolactate to acetoin and/or the conversion of acetoin to 2,3-BDO.
Ketol-acid reductoisomerase is inhibited by the presence of 2-HIBA. It is considered that other compounds having similar structural characteristics to 2-HIBA and the substrates that the enzyme works on (acetolactate. 2-oxo-3-hydroxyisovalerate and 2,3-dihydroxy-3-methylbutanoate) would have a similar effect on Ketol acid reductoisomerase. […]

SMILES: CC(C)(O)C(=O)O [2-HIBA, 2-hydroxyisobutyric acid]
- effect on Ketol-acid reductoisomerase: inhibited
